Source: patent US9950983B2, “Tricyclic compounds and process for preparation thereof” (Council of Scientific and Industrial Research, priority 2014, dated 2018)

Tests used:
[1] = system: Ae. aegypti females mosquitoes; test: Mosquito repellence bioassay (protection period, time until the first bite); type: in vivo; settings: time until first confirmed bite; for Protection period in hrs @dose 0.25 mg/cm^2: dose 0.25 mg/cm^2 on muslin cloth screen over human volunteer's hand; for Protection period in hrs @dose 0.50 mg/cm^2: dose 0.50 mg/cm^2 on muslin cloth screen over human volunteer's hand
Protocol: Protocol Adopted for the Mosquito Repellence Bioassay
Mosquito repellence activity was assessed on the basis of protection period (hr) offered by various analogues of Nootkatone against Mosquito bites. The protection period was measured on the basis of the concept “time until the first bite” pioneered by Granette (Comparison of mosquito repellency test under laboratory and field conditions. Granett, P. Proc Ann Meet NJ Mosq Assoc, 1938, vol. 25, 51,). Repellence tests were carried out against 3-5 days old, blood starved but sucrose fed (0.5M solution), Ae. aegypti females mosquitoes, drawn from well-established laboratory colony maintained at 27±1° C. Temperatureand 70±5% Relative humidity. The light intensity was regulated at 300-500 lux for testing against laboratory, colonized Ae. aegypti, a day biting mosquito. Human volunteer's hand covered with polythene disposable gloves was introduced in the cage containing about 200 hungry mosquitoes. Mosquitoes were allowed to bite on the back of the hand through muslin screen stuck over a small window (2 cm×2 cm) cutout in the polythene bag. Various analogues of Nootkatone were loaded on the muslin cloth screen instead of direct skin application so as to avoid the potential risk involved in the evaluation of natural products of unknown mammalian toxicity. All the test solutions were made in Analar grade Acetone The muslin cloth screen was first treated with the analogue taking two doses @0.25 mg/cm^2 and 0.5 mg/cm^2 and the solvent was evaporated before use. Control muslin screen was treated with solvent alone. After introduction of the hand covered with the polythene glove with the treated muslin screen into the mosquito cage, number of mosquito bites received in subsequent 5 minutes were counted. In the event of no bites in the initial 5 minutes exposure, the test hand was exposed repeatedly after every consecutive ½ hr for 5 minutes test till the time a confirmed bite was received. Number of hours before the receipt of a confirmed bite (Techniques for the evaluation of insect repellents. A critical review (Schreck, C. E, Ann Rev Entomol, 1977, vol 22, 101) represented the protection period offered by the test compound. In control rate of mosquito bite was 10-12 bites/min. Above test were repeated with both male and female human volunteers using different mosquito batches. All the tests were carried out at 27±1° C. temperature between 9.00-17.00 hrs.

[2] = system: Formosan subterranean termite (Coptotermes formosanus); settings: Formosan subterranean termites; Zhu et al., J Chem Ecol 2001; cited from earlier work

Row | SMILES | Protection period in hrs @dose 0.25 mg/cm^2 [1] [h] | Protection period in hrs @dose 0.50 mg/cm^2 [1] [h] | lowest effective concentration tested [2] [micrograms/g substrate]
1 | C[C@@H]1CC(=O)C=C2C(=O)[C@@H]3[C@@H](C3(C)C)[C@]21C (racemic) [Recemic nardoaristolone B, (1aS,1bR,2R,6aR)-1,1,1b,2-Tetramethyl-1,1a,1b,2,3,6a-hexahydrocyclopropa[a]indene-4,6-dione] | 3.30 ± 0.0708 | 5.63 ± 0.1778 | –
2 | C=C(C)[C@@H]1CCC2=CC(=O)C[C@@H](C)[C@]2(C)C1 (racemic) [Recemic nootkatone, nootkatone, reference compound] | 3.12 ± 0.07 | 5.06 ± 0.06 | –
3 | C[C@@H]1CC(=O)C=C2C(=O)[C@H]3[C@H](C3(C)C)[C@]21C [1a, (1aR,1bR,2R,6aS)-1,1,1b,2-Tetramethyl-1,1a,1b,2,3,6a-hexahydro-cyclopropa[a]indene-4,6-dione] | 4.13 ± 0.0626 | 5.35 ± 0.0868 | –
4 | CCOC(=O)[C@H]1[C@@H]2C(=O)C3=CC(=O)C[C@@H](C)[C@]3(C)[C@H]12 [1b, Ethyl(1R,1aS,1bR,2R,6aR)-1b,2-dimethyl-4,6-dioxo-1,1a,1b,2,3,4,6,6a-octahydrocyclopropa[a]indene-1-carboxylate] | 1.23 ± 0.040 | 1.40 ± 0.0549 | –
5 | CC1(C)[C@@H]2CC3=CC(=O)CCC3[C@@H]21 (stereo partly drawn) [1c, (1aR,6aR)-1,1-Dimethyl-1a,1b,2,3,6,6a-hexahydrocyclopropa[a]-inden-4(1H)-one] | 3.60 ± 0.0791 | 5.30 ± 0.088 | –
6 | CC1=C2C[C@@H]3[C@H](C2CCC1=O)C3(C)C (stereo partly drawn) [1d, (1aR,6aR)-1,1,5-trimethyl-1a,1b,2,3,6,6a hexahydrocyclopropa[a]inden-4(1H)-one] | 5.64 ± 0.1984 | 6.29 ± 0.0844 | –
7 | C[C@H]1CC(=O)C=C2C[C@@H]3[C@H]([C@@H]21)C3(C)C [1e, (1aR,1bS,6aR)-1,1,2-Trimethyl-1a,1b,2,3,6,6a-hexahydrocyclo propa[a]inden-4(1H)-one] | 5.22 ± 0.0720 | 6.46 ± 0.1507 | –
8 | CC[C@H]1CC(=O)C=C2C[C@@H]3[C@H]([C@@H]21)C3(C)C [1f, (1aR,1bS,6aR)-2-Ethyl-1,1-dimethyl-1a,1b,2,3,6,6a hexahydrocyclo propa[a]inden-4(1H)-one] | 1.53 ± 0.1223 | 3.48 ± 0.1396 | –
9 | CCC[C@H]1CC(=O)C=C2C[C@@H]3[C@H]([C@@H]21)C3(C)C [1g, (1aR,1bS,6aR)-1,1-Dimethyl-2-propyl-1a,1b,2,3,6,6a-hexahydrocyclo propa[a]inden-4(1H)-one] | 1.8 ± 0.1490 | 1.99 ± 0.1137 | –
10 | CC1(C)CC(=O)C=C2C[C@@H]3[C@H]([C@@H]21)C3(C)C [1h, (1aR,1bR,6aR)-1,1,2,2-Tetramethyl-1a,1b,2,3,6,6a-hexahydro cyclo propa[a]inden-4(1H)-one] | 2.19 ± 0.0716 | 2.38 ± 0.07567 | –
11 | C=C(C)[C@@H]1CCC2=CC(=O)C[C@@H](C)[C@]2(C)C1 [Natural nootkatone, nootkatone, reference compound] | 5.58 ± 0.171 | >7 | –
12 | C=C(C)[C@@H]1CCC2=CC(=O)C[C@@H](C)[C@]2(C)C1 [nootkatone] | – | – | 10
